Results on three compounds are retold here after patent US6632832B1 (Dabur Research Foundation, priority 2002, dated 2003).

≈ marks a conversion by molar mass, not a printed value.

Assay [1] concerns β-receptor. Particulars: preclinical studies; cited from earlier work.
Assay [2] deals with B16F10 (melanoma). The assay can be described thus: MTT cytotoxicity assay, 72 hours. The class given is cell-based, human. Particulars: B16.F10 (Melanoma), 72 h MTT, Table 2. As for the experimental part: (§1) After 72 hours, the assay was terminated and percent cyotoxicities calculated.
Background: Formazan colour is commonly taken as a measure of viable cells.

Assay [3] relates to HBL100 (breast). The experiment in a line: MTT cytotoxicity assay, 72 hours. The class given is cell-based, human. Particulars: HBL100 (Breast), 72 h MTT, Table 2. As for the experimental part:
as §1

Assay [4] deals with KB (oral). The experiment in a line: MTT cytotoxicity assay, 72 hours. The following applies: KB (Oral), 72 h MTT, Table 2. The assay is classed as cell-based, human. How it is done:
as §1

Assay [5] concerns L132 (lung). The experiment in a line: MTT cytotoxicity assay, 72 hours. The assay is classed as cell-based, human. The following applies: L132 (Lung), 72 h MTT, Table 2. How it is done:
as §1

Assay [6] deals with MOLT4 (leukemia). The experiment in a line: MTT cytotoxicity assay, 72 hours. The assay is classed as cell-based, human. The following applies: MOLT-4 (Leukemia), 72 h MTT, Table 2. How it is done: as §1
Assay [7] relates to MiaPaCa.2 (pancreas). The experiment in a line: MTT cytotoxicity assay, 72 hours. The class given is cell-based, human. The following applies: MiaPaCa.2 (Pancreas), 72 h MTT, Table 2. As for the experimental part:
as §1

The test system of assay [8] is PA1 (ovary). The experiment in a line: MTT cytotoxicity assay, 72 hours. The following applies: PA-1 (Ovary), 72 h MTT, Table 2. The class given is cell-based, human. How it is done: as §1
Assay [9] deals with PTC (colon). The assay can be described thus: MTT cytotoxicity assay, 72 hours. The assay is classed as cell-based, human. Particulars: PTC (Colon), 72 h MTT, Table 2. How it is done:
as §1

Assay [10] deals with U87.MG (glioblastoma). The assay can be described thus: MTT cytotoxicity assay, 72 hours. The assay is classed as cell-based, human. The following applies: U87MG (Glioblastoma), 72 h MTT, Table 2. As for the experimental part:
as §1

`COc1cc(O)ccc1OCCNCC(O)COc1cccc2[nH]c3ccccc3c12` (stereo not shown) [4′-hydroxyphenyl metabolite]: the “potency for β-blockade relative to carvedilol” value in assay [1] is reported as “approximately 13 times”.

`COc1ccccc1OCCNC[C@H](O)COc1cccc2[nH]c3ccccc3c12` (single isomer, unassigned) [S(−) isomer]: the ED50 was 11.4 ± 2.1 µg/mL (≈ 28 µM) in assay [2]; 33.5 ± 4.2 µg/mL (≈ 82.4 µM) in [3]; 19.0 ± 3.4 µg/mL (≈ 46.7 µM) in assay [4]; 22.6 ± 3.8 µg/mL (≈ 55.6 µM) in assay [5]; 17.0 ± 2.5 µg/mL (≈ 41.8 µM) in assay [6]; 33.0 ± 3.9 µg/mL (≈ 81.2 µM) in assay [7]. Besides, the results for the ED50 in [8], in assay [9] and in assay [10] were 13.0 ± 1.3 µg/mL (≈ 32 µM), 7.5 ± 0.4 µg/mL (≈ 18.5 µM) and 18.5 ± 2.1 µg/mL (≈ 45.5 µM), respectively.

Consider `COc1ccccc1OCCNC[C@@H](O)COc1cccc2[nH]c3ccccc3c12` (single isomer, unassigned) [R(+) isomer], for which the ED50 amounted to 10.5 ± 1.6 µg/mL (≈ 25.8 µM) in assay [2]; 32.8 ± 3.7 µg/mL (≈ 80.7 µM) in assay [3]; 12.0 ± 2.6 µg/mL (≈ 29.5 µM) in assay [4]; 16.0 ± 3.1 µg/mL (≈ 39.4 µM) in assay [5]; 12.0 ± 1.6 µg/mL (≈ 29.5 µM) in assay [6]; 27.0 ± 2.7 µg/mL (≈ 66.4 µM) in assay [7]. Moreover, the results for the ED50 in assay [8], in assay [9] and in [10] were 10.0 ± 1.5 µg/mL (≈ 24.6 µM), 7.0 ± 0.4 µg/mL (≈ 17.2 µM) and 14.5 ± 2.9 µg/mL (≈ 35.7 µM), respectively.
